Measured values from article PMC5595280, “Cytotoxicity and anti-tumor effects of new ruthenium complexes on triple negative breast cancer cells” (PLoS ONE, 2017).

Columns and labels:
Type in all cases: cell-based, human
[1] = test system: MDA-MB-231 cells; test: Boyden chamber migration assay; details: 5, 10 and 20 μM, 22 h
Procedure: Cell migration was also assessed in a chemotactic assay using 24 well Boyden chambers (BD Biosciences) as described earlier. MDA-MB-231 (0.5 x 10^5/350 μL) cells, incubated or not with complex (4) 5, 10 and 20 μM were seeded on the upper chamber in a DMEM incomplete medium (without FBS). In the lower chamber DMEM medium supplemented with 10% FBS was added. Cells were allowed to migrate for 22 h at 37°C and 5% CO2 in a humidified environment. Then, cells that remained in the upper chamber were removed using a cotton swab. Cells that migrated to the other side of the upper chamber membrane were fixed with methanol and stained with 1% toluidine blue. Migrated cells were quantified by manual counting and inhibition ratio was expressed as % of control.

[2] = test system: MDA-MB-231 cells; test: Cell adhesion to ECM proteins
Procedure: The effects of complex (4) on the adhesion of MDA-MB-231 cells were analyzed in 96-well plates (Corning) as described earlier. Vitronectin (1.0 μg), laminin (0.3 μg) or fibronectin (0.3 μg) immobilized on the plates in a cell adhesion buffer (20 mM HEPES, 150 mM NaCl, 5 mM KCl, 1 mM MgSO4 and 1 mM MnCl2 pH 7.35), overnight at 4°C. Collagen type I (10 μg) was dissolved in acetic acid (0.1%) and coated on the wells. On the next day, wells were blocked with adhesion buffer containing 1% BSA solution for 1h and then washed with 100 μL per well of adhesion buffer. Cells (5 x 10^4/100 μL) were incubated for 30 min with different concentrations of the complex (4) at 37°C 5% CO2 and then plated and incubated under the same conditions for a further 1h. Then the non-adhered cells were gently removed by washing and attached cells were fixed with 100 μL 70% ethanol for 10 min. Cells were stained with 0.5% crystal violet for 20min and the excess dye was removed by washing with PBS. The stained cells were diluted in 100 μL of 1% solution of sodium dodecyl sulfate (SDS) for 30min and reading of the plates was performed on ELISA reader at 595 nm wavelength.

[3] = test system: MDA-MB-231 cells; test: Phalloidin staining of F-actin cytoskeleton; details: 30 min
Procedure: To examine the effects of complex (4) on the F-actin cytoskeleton organization in MDA-MB-231 cells, Alexa Fluor® 488 Phalloidin was used to stain the F-actin fibers. MDA-MB-231 cells (5x10^4 cells/100 μL) were plated in 96-well plates and maintained at 37°C in a humidified incubator with 5% CO2 for 24 h. In the next day, cells were treated with 10, 20, 40 μM of complex (4) and incubated for 30 min. Next, cells were washed with PBS, fixed with 3.7% paraformaldehyde in PBS for 30 min and then permeabilized with 0.1% Triton-X 100 in PBS for 5min at room temperature. Blocking was performed with 2% BSA for 30 min, followed by the addition of Alexa Fluor 488 Phalloidin for 20 min. Cells were then stained with DAPI for nuclear labeling for 10min and finally washed again with PBS for three times. Images were obtained with an automated microscope ImageXpress® Micro XLS System (Molecular Devices).

[4] = test system: MCF-10A cells; test: Apoptosis by flow cytometry (PE-Annexin-V / 7AAD); details: 20 μM, 3 h
Procedure: (§1) MDA-MB-231 and MCF-10A cells (1.0 x 10^5/mL) were seeded in 12-well plates in a complete DMEM medium and incubated for 24 h. After this period the medium was removed and cells were incubated or not (control) with different concentrations of complex (4), for 3 h at 37°C and 5% CO2. After treatment the plate was centrifuged at 2000 rpm for 5 min at 4°C, washed with PBS and resuspended in 400 μL of binding buffer from the kit. Cells were incubated with 10 μL of 7AAD and 10 μL of PE-Annexin-V for 15 min protected from light. After the incubation period the supernatant was removed and 400 μL of binding buffer were added to the wells. Cells were then removed from the wells with the aid of a scraper and transferred to flow cytometry tubes. The reading was performed in Accuri C6 flow cytometer (BD Biosciences) and fluorescence emitted by each dye was quantified using CellQuest software (BD Biosciences).

[5] = test system: MDA-MB-231 cells; test: Apoptosis by flow cytometry (PE-Annexin-V / 7AAD); details: MDA-MB-231, 20 μM, 3 h
Procedure: as §1

[6] = test system: Bax, Caspase-3 and Bcl-2 gene expression in MDA-MB-231 cells; test: RT-qPCR of apoptosis related genes; details: 40 μM, 3 h
Procedure: MDA-MB-231 cells (1.0 x 10^6/plate) were incubated for 3 h with (20 and 40 μM) or without (control) the complex (4) in Petri dishes (6 cm) at 37°C in a humidified incubator with 5% CO2. Total RNA was extracted using Trizol reagent (Invitrogen). cDNAs were synthesized using Enhanced Avian RT First Strand Synthesis kit (Sigma-Aldrich, St. Louis, MO, USA). A Rotor-Gene 6000 real-time rotary analyzer (Corbett Life Science, Australia) was used to amplify both target and internal control templates (1 cycle at 95°C for 5 min and 40 amplification cycles at 95°C for 30 sec, 55°C for 30sec and 72°C for 45sec). In brief, 1 μL of reverse transcribed product template, 5 μL of SYBR Green JumpStart Taq ReadyMix (Sigma-Aldrich) and the gene-specific primer pairs at a final concentration of 500 nmol l^-1 for each primer, made 10 μL of reaction system. Primers used in the assays were: Caspase-3 (Forward: 5’GTG CTA CAA TGC CCC TGG AT3’; Reverse: 5’GCCCATTCATTTATTGCTTTC C3’), Bax (Forward: 5’CAT CCA GGA TCG AGC AGG3’; Reverse: 5’CGA TGC GCT TGA GAC ACT C3), Bcl-2 (Forward: 5’GGT GGG AGG GAG GAA GAA T3’; Reverse: 5’GCA GAG GCA TCA CAT CGA C3’) and β-actin (Forward: 5’GACGGCCAGGTCATCACCATT G3’; Reverse: 5’AGCACTGTGTTGGCGTACAGG 3’). Bax primers (NM_001291428.1) and Bcl-2 (NM_000633.2) were designed with Gene Runner available at http://generunner.net/ (version5.0.63 Beta), except for the primer Caspase-3 (NM_004346.3). For each gene, all samples were amplified simultaneously in duplicate in one assay run. The internal calibrator used as a basis to standardize the results of expression was the control group ΔCts average. Calibration was determined by ΔΔCt = ΔCt (sample) − ΔCt (calibrator). Gene expression was assessed by relative quantification, using the formula 2-ΔΔCt and β-actin as internal control. Data represent three assays in duplicate. A blank with water, primers and SYBR Green instead of template sample was performed.

`CC(=O)[O-].F[P-](F)(F)(F)(F)F.[Ru+2].c1ccc(-c2ccccn2)nc1.c1ccc(P(CCCCP(c2ccccc2)c2ccccc2)c2ccccc2)cc1` [Complex (4), [Ru(CH3CO2)(dppb)(bipy)]PF6] was tested. Which “effect on cell migration (Boyden chamber)” value [1] did it give?
Its value is “inhibited MDA-MB-231 cell migration in a concentration dependent fashion”.

What about the “inhibition of cell adhesion to type I collagen” value ([2]; 20 μM) of the same compound?
The value was “approximately 35%”.

And the “inhibition of cell adhesion to fibronectin, laminin and vitronectin” value ([2]; 40 μM)?
Its value is “about 65%”.

And the “inhibition of cell adhesion to type I collagen” value ([2]; 40 μM)?
Its value is roughly 50%.

What about the “effect on cell adhesion to fibronectin, laminin and vitronectin” value ([2]; all concentrations tested) of the same compound?
The value was “inhibited cell adhesion”.

What about the “effect on actin cytoskeleton structure” value ([3]; 10, 20 and 40 μM) of the same compound?
Its value is “strongly modified the structure of the actin cytoskeleton”.

And the “effect on cytoskeleton density” value ([3]; 20 and 40 μM)?
The value was “decrease in cytoskeleton density”.

What about the cells suffering apoptosis [4] of the same compound?
Its cells suffering apoptosis is 14.9%.

What about the cells suffering apoptosis [5] of the same compound?
The cells suffering apoptosis was 74.4%.

And the Bax gene expression [6]?
Its Bax gene expression is “upregulated”.

And the Bcl-2 gene expression [6]?
The Bcl-2 gene expression was “did not affect”.

What about the Caspase-3 gene expression [6] of the same compound?
The Caspase-3 gene expression was “upregulated”.
